Experimental findings from patent US20260272878A1, “ADAR1 INHIBITORS AND USES THEREOF” (THE WISTAR INSTITUTE OF ANATOMY AND BIOLOGY, priority 2023, published 2026) are described below.

Entries after “also recorded” stand apart in the source; their conditions may differ.

The test system of one assay is Z-RNA. The experiment in a line: Z-RNA formation. The format is cell-based. The source says:
FIGS. 7A-7C show analysis of ADAR1i-13 and analogs. […] IC50 values determined by dose-dependent in vitro editing assay are shown for ADAR1 inhibition positive compounds. […] Dumbbell-shaped dsRNA has been reported to form Z-RNA conformation and act as a strong IFN signaling activation triggers. ADAR1p150 mediated A-to-I editing suppresses Z-RNA structure transition and activation of IFN signaling.

Another assay concerns ALT U2OS cells. The experiment in a line: Cell killing / viability, U2OS. The format is cell-based. As to the method: FIGS. 8A-8C show analysis of ADAR1i-124 effects in cancer cells. […] Viability was examined using the Apo Tox-Glo assay system. Control, 0.3% DMSO. Data: mean±SD (n=3). Significant differences identified by two-tailed Student's t-tests: *P<0.05, n.s., not significant. (FIG. 8B) Western blotting analysis of HeLa cells treated with ADAR1i-124 (10 μM).
FIGS. 9A-9C show dose-dependent killing of cancer cells and activation of IFN signaling. […] YUMM1.7 (FIG. 9B) and HGS2 cells (FIG. 9C) were treated with ADAR1i-124 at 10 μM (12 hrs). RNA samples were analyzed by qRT-PCR to monitor ISG expression levels. Data: mean±SD (n=3). Significant differences were identified by two-tailed Student's t-tests: ***P<0.001.
Dose-dependent selective killing of telomerase reactivated cancer cells was determined (FIG. 9A).

The next assay deals with HeLa cells. Kind of assay: Cell death mechanism, Annexin V apoptosis marker, HeLa. The format is cell-based, human. From the text:
FIGS. 10A-10C show ADAR1i-124 kills cancer cells via different cell death mechanism. (FIG. 10A) Differential expression of ADAR1p150 and ADAR1p110 in cancer cells. […] Annexin V and pMLKL were used as apoptosis and necroptosis markers, respectively. At least 200 cells were examined. Data: mean±SD (n=3). Significant differences were identified by two tailed Student's t-tests: *P<0.05, n.s., not significant. […] We plan to evaluate ADAR1 inhibitors in vivo in mouse tumor model systems by using these mouse cancer cell lines.
Thus, ADAR1i-124 has the potential to act as a “two birds with one stone” cancer therapeutic.

For a further assay, the system named is mouse melanoma. Kind of assay: Subcutaneous mouse melanoma growth in B6 black mice. The format is in vivo. To be noted: 4 treatments starting at Day 8, versus vehicle. From the text:
We inoculated mouse melanoma cells subcutaneously in B6 black mice. Then, starting at Day 8, we treated mice for 4 treatments of either vehicle only or ADAR1i-124 (FIG. 11A).

Turning to `N#Cc1ccc(NC(=O)c2c(Cl)c3ccccc3n2CO)cc1` [ADAR1i-124], the Z-RNA formation entry in the assay with Z-RNA is on record as “induces formation of Z-RNAs”. In addition, in the assay on ALT U2OS cells, the “Killing of U2OS cells” value was “unaffected”. Moreover, in the assay on HeLa cells, the Induction of apoptosis result is on record as “induced apoptosis; also recorded: killed via apoptosis”. Further, the “Growth of mouse melanomas in vivo” value in the assay with mouse melanoma is recorded as “significantly suppressed growth of mouse melanomas”.
